# According to patent publication US20210122730A1, “GLUCOCORTICOID RECEPTOR MODULATORS” (ORIC Pharmaceuticals, Inc., priority 2017, published 2021):
# Target: T1, GR (Homo sapiens, UniProt P04150)
# T1 construct: expressed in transfected cells; host or cells: CHO-K1
# T1 sequence (P04150 1-777): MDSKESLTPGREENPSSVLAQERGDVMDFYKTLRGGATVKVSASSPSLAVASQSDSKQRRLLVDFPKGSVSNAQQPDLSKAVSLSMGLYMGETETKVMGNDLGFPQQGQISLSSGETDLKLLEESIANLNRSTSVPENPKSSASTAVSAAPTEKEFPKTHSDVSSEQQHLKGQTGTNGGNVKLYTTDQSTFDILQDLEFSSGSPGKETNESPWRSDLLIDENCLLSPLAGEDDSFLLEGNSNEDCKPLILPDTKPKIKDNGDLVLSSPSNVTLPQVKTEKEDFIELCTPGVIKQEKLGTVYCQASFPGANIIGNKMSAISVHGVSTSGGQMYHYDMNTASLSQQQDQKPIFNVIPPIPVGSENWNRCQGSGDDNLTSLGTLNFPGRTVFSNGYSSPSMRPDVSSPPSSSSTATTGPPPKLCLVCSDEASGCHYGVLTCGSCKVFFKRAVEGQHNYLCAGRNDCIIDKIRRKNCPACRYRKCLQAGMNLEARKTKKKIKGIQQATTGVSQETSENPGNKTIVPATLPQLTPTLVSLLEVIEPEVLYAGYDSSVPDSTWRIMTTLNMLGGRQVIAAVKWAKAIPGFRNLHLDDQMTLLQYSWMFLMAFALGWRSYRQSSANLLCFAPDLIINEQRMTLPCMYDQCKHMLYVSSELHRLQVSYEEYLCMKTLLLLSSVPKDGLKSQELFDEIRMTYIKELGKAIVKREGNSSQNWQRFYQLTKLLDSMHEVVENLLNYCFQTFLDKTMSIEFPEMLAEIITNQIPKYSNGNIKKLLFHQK
# Assay: In Vitro GR Luciferase Reporter Assay (antagonist mode, CHO-K1-GR-MMTV-Luc reporter cells)
# Assay type: cell-based
# Conditions: antagonist mode, 10 nM Dexamethasone
# Method in brief: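 Antagonist mode: compounds (8 serial 1:5 dilutions) added to GR-MMTV-luciferase CHO-K1 reporter cells co-exposed to 10 nM dexamethasone final, in phenol red-free DMEM plus 10% CSS. After roughly 18-24 h at 37° C, OneGlo luminescence read and IC50 calculated.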
row,SMILES,IC50
1,"CC(C)N([C@H]1CCC2=Cc3c(cnn3-c3ccc(F)cc3)C[C@]2(C(=O)c2cc(Cl)ccn2)C1)S(=O)(=O)c1ccc(Cl)nc1 [Example 323, 6-chloro-N-((4aS,6S)-4a-(4-chloropicolinoyl)-1-(4-fluorophenyl)-4,4a,5,6,7,8-hexahydro-1H-benzo[f]indazol-6-yl)-N-isopropylpyridine-3-sulfonamide]",≤ 100 nM
2,"C[C@]1(O)C[C@@H](N([C@H]2CCC3=Cc4c(cnn4-c4ccc(F)cc4)C[C@]3(C(=O)c3cc(F)ccn3)C2)S(=O)(=O)c2ccc(F)cc2)C1 [Example 343, 4-fluoro-N-((4aS,6S)-1-(4-fluorophenyl)-4a-(4-fluoropicolinoyl)-4,4a,5,6,7,8-hexahydro-1H-benzo[f]indazol-6-yl)-N-((1s,3R)-3-hydroxy-3-methylcyclobutyl)benzenesulfon-amide]",≤ 100 nM
3,"Cn1ccc(S(=O)(=O)N(CC(F)F)[C@H]2CCC3=Cc4c(cnn4-c4ccc(F)cc4)C[C@]3(C(=O)c3cc(Cl)ccn3)C2)n1 [Example 345, N-((4aS,6S)-4a-(4-chloropicolinoyl)-1-(4-fluorophenyl)-4,4a,5,6,7,8-hexahydro-1H-benzo[f]indazol-6-yl)-N-(2,2-difluoroethyl)-1-methyl-1H-pyrazole-3-sulfonamide]",≤ 100 nM
4,"O=C(c1cc(F)ccn1)[C@]12Cc3cnn(-c4ccc(F)cc4)c3C=C1CC[C@H](N(CC(F)F)S(=O)(=O)c1ccc(Cl)nc1)C2 [Example 351, 6-chloro-N-(2,2-difluoroethyl)-N-((4aS,6S)-1-(4-fluorophenyl)-4a-(4-fluoropicolinoyl)-4,4a,5,6,7,8-hexahydro-1H-benzo[f]indazol-6-yl)pyridine-3-sulfonamide]",≤ 100 nM
5,"O=C(c1cc(Cl)ccn1)[C@]12Cc3cnn(-c4ccc(F)cc4)c3C=C1CC[C@H](N(CC(F)F)S(=O)(=O)c1ccc(Cl)nc1)C2 [Example 352, 6-chloro-N-((4aS,6S)-4a-(4-chloropicolinoyl)-1-(4-fluorophenyl)-4,4a,5,6,7,8-hexahydro-1H-benzo[f]indazol-6-yl)-N-(2,2-difluoroethyl)pyridine-3-sulfonamide]",≤ 100 nM
6,"Cn1ccc(S(=O)(=O)CC2CCC3=Cc4c(cnn4-c4ccc(F)cc4)C[C@]3(C(=O)c3cc(C(F)(F)F)ccn3)C2)n1 (stereo partly drawn) [Example 353, ((4aR)-1-(4-fluorophenyl)-6-(((1-methyl-1H-pyrazol-3-yl)sulfonyl)methyl)-1,4,5,6,7,8-hexahydro-4aH-benzo[f]indazol-4a-yl)(4-(trifluoromethyl)pyridin-2-yl)methanone]",≤ 100 nM
7,"Cn1ccc(S(=O)(=O)CC2CCC3=Cc4c(cnn4-c4ccc(F)cc4)C[C@]3(C(=O)c3cc(F)ccn3)C2)n1 (stereo partly drawn) [Example 362, ((4aR)-1-(4-fluorophenyl)-6-(((1-methyl-1H-pyrazol-3-yl)sulfonyl)methyl)-1,4,5,6,7,8-hexahydro-4aH-benzo[f]indazol-4a-yl)(4-fluoropyridin-2-yl)methanone]",≤ 100 nM
8,"Cn1ccc(S(=O)(=O)CC2CCC3=Cc4c(cnn4-c4ccc(F)cc4)C[C@]3(C(=O)c3cc(Cl)ccn3)C2)n1 (stereo partly drawn) [Example 364, (4-chloropyridin-2-yl)((4aR)-1-(4-fluorophenyl)-6-(((1-methyl-1H-pyrazol-3-yl)sulfonyl)methyl)-1,4,5,6,7,8-hexahydro-4aH-benzo[f]indazol-4a-yl)methanone]",≤ 100 nM
9,"Cn1cnc(S(=O)(=O)[C@H]2CCC3=Cc4c(cnn4-c4ccc(F)cc4)C[C@]3(C(=O)c3cc(C(F)(F)F)ccn3)C2)n1 [Example 365, ((4aS,6S)-1-(4-fluorophenyl)-6-((1-methyl-1H-1,2,4-triazol-3-yl)sulfonyl)-1,4,5,6,7,8-hexahydro-4aH-benzo[f]indazol-4a-yl)(4-(trifluoromethyl)pyridin-2-yl)methanone]",≤ 100 nM
10,"O=C(c1cc(Cl)ccn1)[C@]12Cc3cnn(-c4ccc(F)cc4)c3C=C1CC[C@H](N(C1CC(F)(F)C1)S(=O)(=O)c1ccc(Cl)nc1)C2 [Example 370, 6-chloro-N-((4aS,6S)-4a-(4-chloropicolinoyl)-1-(4-fluorophenyl)-4,4a,5,6,7,8-hexahydro-1H-benzo[f]indazol-6-yl)-N-(3,3-difluorocyclobutyl)pyridine-3-sulfonamide]",≤ 100 nM

# More lines, now with the values ahead:
row,IC50,SMILES
1,≤ 100 nM,"Cc1nc(S(=O)(=O)N(C2CC2)[C@H]2CCC3=Cc4c(cnn4-c4ccc(F)cc4)C[C@]3(C(=O)c3ncc(C(F)(F)F)s3)C2)cn1C [Example 336, N-cyclopropyl-N-((4aS,6S)-1-(4-fluorophenyl)-4a-(5-(trifluoromethyl)thiazole-2-carbonyl)-4,4a,5,6,7,8-hexahydro-1H-benzo[f]indazol-6-yl)-1,2-dimethyl-1H-imidazole-4-sulfonamide]"
2,≤ 100 nM,"Cn1cc(S(=O)(=O)CC2CCC3=Cc4c(cnn4-c4ccc(F)cc4)C[C@]3(C(=O)c3ccc(C(F)(F)F)cn3)C2)cn1 (stereo partly drawn) [Example 340, ((4aR)-1-(4-fluorophenyl)-6-(((1-methyl-1H-pyrazol-4-yl)sulfonyl)methyl)-1,4,5,6,7,8-hexahydro-4aH-benzo[f]indazol-4a-yl)(5-(trifluoromethyl)pyridin-2-yl)methanone]"
3,≤ 100 nM,"Cn1ccc(S(=O)(=O)CC2CCC3=Cc4c(cnn4-c4ccc(F)cc4)C[C@]3(C(=O)c3ccc(C(F)(F)F)cn3)C2)n1 (stereo partly drawn) [Example 360, ((4aR)-1-(4-fluorophenyl)-6-(((1-methyl-1H-pyrazol-3-yl)sulfonyl)methyl)-1,4,5,6,7,8-hexahydro-4aH-benzo[f]indazol-4a-yl)(5-(trifluoromethyl)pyridin-2-yl)methanone]"
4,≤ 100 nM,"Cn1ccc(S(=O)(=O)CC2CCC3=Cc4c(cnn4-c4ccc(F)cc4)C[C@]3(C(=O)c3ncc(C(F)(F)F)s3)C2)n1 (stereo partly drawn) [Example 361, ((4aR)-1-(4-fluorophenyl)-6-(((1-methyl-1H-pyrazol-3-yl)sulfonyl)methyl)-1,4,5,6,7,8-hexahydro-4aH-benzo[f]indazol-4a-yl)(5-(trifluoromethyl)thiazol-2-yl)methanone]"
5,≤ 100 nM,"Cn1ccc(S(=O)(=O)N([C@H]2CCC3=Cc4c(cnn4-c4ccc(F)cc4)C[C@]3(C(=O)c3cc(C(F)(F)F)ccn3)C2)[C@H]2C[C@@](O)(C(F)(F)F)C2)n1 [Example 369, N-((4aS,6S)-1-(4-fluorophenyl)-4a-(4-(trifluoromethyl)picolinoyl)-4,4a,5,6,7,8-hexahydro-1H-benzo[f]indazol-6-yl)-N-((1r,3S)-3-hydroxy-3-(trifluoromethyl)cyclobutyl)-1-methyl-1H-pyrazole-3-sulfonamide]"
6,≤ 100 nM,"COCCN([C@H]1CCC2=Cc3c(cnn3-c3ccc(F)cc3)C[C@]2(C(=O)c2ncc(C(F)(F)F)s2)C1)S(=O)(=O)c1ccc(F)cc1 [Example 372, 4-fluoro-N-((4aS,6S)-1-(4-fluorophenyl)-4a-(5-(trifluoromethyl)thiazole-2-carbonyl)-4,4a,5,6,7,8-hexahydro-1H-benzo[f]indazol-6-yl)-N-(2-methoxyethyl)benzenesulfon-amide]"
7,≤ 100 nM,"Cn1cc(S(=O)(=O)CC2CCC3=Cc4c(cnn4-c4ccc(F)cc4)C[C@]3(C(=O)c3ncc(C(F)(F)F)s3)C2)cn1 (stereo partly drawn) [Example 375, ((4aR)-1-(4-fluorophenyl)-6-(((1-methyl-1H-pyrazol-4-yl)sulfonyl)methyl)-1,4,5,6,7,8-hexahydro-4aH-benzo[f]indazol-4a-yl)(5-(trifluoromethyl)thiazol-2-yl)methanone]"
